How the values were obtained:
[1] = target: T1, recombinant wild-type (WT) CAC (Rattus norvegicus, UniProt P97521); experiment: Transport activity of purified recombinant WT CAC reconstituted into liposomes; format: biochemical
T1 construct: made in house; host or cells: Escherichia coli C0214
T1 sequence (P97521 1-301): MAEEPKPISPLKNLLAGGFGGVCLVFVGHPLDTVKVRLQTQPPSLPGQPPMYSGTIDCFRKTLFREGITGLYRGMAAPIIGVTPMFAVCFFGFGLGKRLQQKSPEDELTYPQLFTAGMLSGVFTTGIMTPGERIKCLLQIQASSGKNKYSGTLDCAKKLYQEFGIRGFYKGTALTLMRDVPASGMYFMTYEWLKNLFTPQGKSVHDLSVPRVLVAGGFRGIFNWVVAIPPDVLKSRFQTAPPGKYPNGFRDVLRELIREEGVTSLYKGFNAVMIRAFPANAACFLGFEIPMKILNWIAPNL
Experimental: To detect the effect of DAN on native CAC, mitochondrial extract was reconstituted into liposomes and transport activity was measured adding various concentrations of compound. In Figure 7A, the dose–response curve is shown. […] Thus, the effect of different concentrations of DAN was tested also on the purified recombinant wild-type (WT) CAC carrier reconstituted into liposomes, measuring the antiport rate of carnitine.
The reducing properties of DAN were studied on the recombinant WT CAC with the protein at different states of oxidation. Figure 8B highlights that when the carrier was incubated during the transport activity with 1 mM dithioerythritol (DTE), 10 µM DAN was able to reduce a major aliquot of oxidized protein (70% recovery of activity compared to the control). […] To identify the cysteines responsible for the activation of the CAC carrier, the proteoliposomes of the WT protein and the mutants C136S, C155S, C136/155S, and C-lessV (C23V/C58V/C89S/C136V/C155V/C283S) were incubated with 10 μM DAN. […] Further evidence of the reducing action of DAN on CAC was obtained by oxidation of the reconstituted WT protein under controlled conditions, i.e., in the presence or absence of hydrogen peroxide and its subsequent degradation by the enzyme catalase. […] The addition of 20 µM DAN led to a significant recovery (about 80%) of the transport function, after treatment of the carrier with H2O2.
The previously constructed pMW7-WTrat CAC recombinant plasmid was used as a template to introduce mutations in the CAC protein using complementary mutagenic primers and the High Fidelity PCR System (Roche, Basel, Switzerland). The PCR products were purified by the QIAEX II Gel Extraction Kit (QIAGEN, Milan, Italy), digested with the restriction enzymes Nde I and Hind III (New England Biolabs, Ipswich, MA, USA) and ligated into the pMW7 cloning vector (given as a gift). All resulting pMW7-rat CAC constructs were verified by DNA sequencing. Except for the desired base changes, all the sequences corresponded to the CAC coding sequence. Bacterial overexpression was obtained using the expression vector of Escherichia coli C0214 (given as a gift). Wild-type and mutants rat CAC inclusion body fractions were isolated from E. coli, solubilized, and purified as previously described.
Mitochondrial rat liver extract (0.3 mg proteins in 3% Triton X-100) containing native CAC was reconstituted into liposomes by removing the detergent from the mixed micelles through a hydrophobic ion-exchange column containing the resin Amberlite XAD-4, as described previously. The reconstitution mixture of mitochondrial or recombinant CAC proteins was composed of protein, 1% Triton X-100, 10 mg of egg yolk phospholipids (L-α-phosphatidylcholine from fresh turkey egg yolk), in the form of sonicated liposomes, 30 mM NaH2PO4 at pH 7.0, 15 mM carnitine, in a final volume of 680 μL. This mixture was passed 15 times, at room temperature, through the same Amberlite column (Pasteur pipette filled with 0.5 g resin) pre-equilibrated with a buffer containing 30 mM NaH2PO4 at pH 7.0 and 15 mM carnitine.
Before starting the transport activity, proteoliposomes were passed through a Sephadex G-75 column (0.7 cm diameter; 15 cm height; Pharmacia, Milan, Italy) to remove the external substrate. The turbid eluate (550 μL) from the Sephadex column was collected and used for transport measurement by the inhibitor-stop method. For uptake measurements, transport at 25 °C was started by adding 0.1 mM [^3H]-carnitine to proteoliposomes and stopped by the addition of 0.1 mM NEM. In control samples, the inhibitor was added together with the labeled substrate at time zero. The experimental values were corrected by subtracting control values. […]

physchem = conditions: pH 7.4
Experimental: In order to check the hydrolytic stability of DAN in buffered media, we used a HPLC method to check the stability of 20 μM DAN in phosphate buffered saline (PBS) at physiological pH of 7.4, at 37 °C.
The chromatographic data were acquired using the Waters Breeze software (version 3.20). Analyses were performed on a Phenomenex C18 column (150 × 4.6 mm i.d., 3 µm particle size; Phenomenex srl, Castel Maggiore, Italy) using a mobile phase of methanol/water (75:25 v/v), with aqueous formic acid 0.1%. The used flow rate was 0.5 mL/min and the injection volume was 20 µL. Wavelength UV-Vis detector was set at 380 nm.
The chemical stability of dantrolene sodium was evaluated in a phosphate buffered saline solution pH 7.4 (10 mM HPO4^2−/H2PO4^−, 100 mM NaCl) at 37 °C. Samples were tested in triplicate starting from three different stocks solution (1 mM), which were prepared separately.

O=C1CN(/N=C/c2ccc(-c3ccc([N+](=O)[O-])cc3)o2)C(O)=N1 [Dantrolene]
transport activity of WT CAC over time compared to the control ([1]; 10 μM, average values over time intervals): around 160% | recovery of activity compared to the control ([1]; 10 µM, carrier incubated with 1 mM DTE): 70% | recovery of activity ([1]; 10 µM, carrier incubated with 50 mM DTE): 25% | increase in transport activity on WT ([1]; 10 μM, proteoliposomes of WT protein): 180% | recovery of the transport function after H2O2 ([1]; 20 µM, after 1 mM H2O2 for 10 min at 37 °C (activity decreased to about 50% without compound)): about 80% | EC50 ([1]; after 30 min of incubation, read-out: EC50 of activation of recombinant WT CAC): 9.3 ± 3.1 µM | concentration for whole activation of the WT protein ([1]; dose–response curve, 30 min): above 50 μM | recovery at 60 h, 20 μM (physchem): 92%
